The results in this text go back to US20220356174A1, “PYRIDIN-2-ONE COMPOUNDS USEFUL AS SMARCA2 ANTAGONISTS” (Epizyme, Inc., priority 2018, published 2022).

Sequence of FL-SMARCA4 (P51532 whole entry): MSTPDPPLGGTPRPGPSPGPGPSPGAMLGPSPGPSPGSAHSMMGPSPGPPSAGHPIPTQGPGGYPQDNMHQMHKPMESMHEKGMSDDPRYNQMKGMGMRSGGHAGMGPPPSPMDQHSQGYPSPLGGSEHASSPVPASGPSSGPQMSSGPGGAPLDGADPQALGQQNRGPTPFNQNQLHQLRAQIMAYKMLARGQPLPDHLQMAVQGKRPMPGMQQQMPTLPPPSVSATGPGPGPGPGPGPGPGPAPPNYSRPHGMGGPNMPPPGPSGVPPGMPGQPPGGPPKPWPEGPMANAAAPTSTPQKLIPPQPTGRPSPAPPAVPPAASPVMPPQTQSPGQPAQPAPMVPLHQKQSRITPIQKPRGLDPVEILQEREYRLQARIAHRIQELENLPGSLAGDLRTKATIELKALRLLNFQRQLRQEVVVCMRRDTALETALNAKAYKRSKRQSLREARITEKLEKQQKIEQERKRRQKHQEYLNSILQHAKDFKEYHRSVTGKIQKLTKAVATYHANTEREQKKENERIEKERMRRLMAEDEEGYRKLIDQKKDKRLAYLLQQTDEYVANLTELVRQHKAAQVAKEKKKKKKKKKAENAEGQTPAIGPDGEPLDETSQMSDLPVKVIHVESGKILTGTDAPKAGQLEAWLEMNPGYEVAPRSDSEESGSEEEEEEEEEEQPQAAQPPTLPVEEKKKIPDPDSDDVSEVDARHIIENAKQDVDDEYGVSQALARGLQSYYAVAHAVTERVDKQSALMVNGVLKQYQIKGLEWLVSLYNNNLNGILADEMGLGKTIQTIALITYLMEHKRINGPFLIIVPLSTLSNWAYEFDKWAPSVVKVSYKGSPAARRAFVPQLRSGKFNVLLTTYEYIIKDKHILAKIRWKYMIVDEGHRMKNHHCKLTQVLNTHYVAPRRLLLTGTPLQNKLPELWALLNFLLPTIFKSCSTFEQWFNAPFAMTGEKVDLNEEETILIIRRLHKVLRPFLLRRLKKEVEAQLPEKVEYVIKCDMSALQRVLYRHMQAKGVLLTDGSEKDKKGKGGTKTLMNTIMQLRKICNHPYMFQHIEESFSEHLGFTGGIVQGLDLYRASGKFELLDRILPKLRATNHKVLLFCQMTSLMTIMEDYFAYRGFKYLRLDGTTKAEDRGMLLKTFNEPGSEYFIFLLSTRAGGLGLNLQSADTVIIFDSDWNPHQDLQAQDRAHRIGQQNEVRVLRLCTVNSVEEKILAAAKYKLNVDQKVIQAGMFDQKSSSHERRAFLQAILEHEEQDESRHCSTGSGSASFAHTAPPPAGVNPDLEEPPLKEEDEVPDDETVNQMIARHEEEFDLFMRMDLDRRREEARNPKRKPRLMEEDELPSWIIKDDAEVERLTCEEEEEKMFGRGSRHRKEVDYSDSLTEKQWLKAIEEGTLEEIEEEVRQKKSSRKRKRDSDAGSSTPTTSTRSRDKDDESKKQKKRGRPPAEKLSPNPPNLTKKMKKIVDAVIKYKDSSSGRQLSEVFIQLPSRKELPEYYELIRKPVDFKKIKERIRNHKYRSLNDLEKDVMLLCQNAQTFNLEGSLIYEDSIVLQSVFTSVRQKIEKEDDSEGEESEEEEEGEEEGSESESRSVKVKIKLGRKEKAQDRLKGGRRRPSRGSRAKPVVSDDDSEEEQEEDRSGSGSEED

The first assay has as its system A549 cells. In words: High-throughput proliferation (HTP) assay for A549 cells (CellTiter-Glo, 7 days). It is filed as cell-based. Conditions: Homo sapiens, 168 h, read-out: A549 SMARCA2 IC50. The method, then: Thawing vials: A549 cells (ATCC #CCL-185™) were thawed from a cryovial containing approximately 1.6×10^6 cells frozen in 70% F12K medium, 20% HI-FBS and 10% DMSO. Cells were thawed by submerging the bottom half of the vial in a 37° C. water bath and gently flicked until almost thawed. The cells were transferred into a 15 mL conical tube containing 9 mL of F12K medium+10% HI-FBS and then centrifuged at 200×g for 4 min before drawing off the media without disturbing the cell pellet in order to remove the DMSO. The cells were resuspended again in 15 mL of F12K fresh complete media+10% HI-FBS and grown up in a T75 flask at 37° C. with 5% CO2 Incubator. Viability was measured to obtain baseline.
Frozen stock vials preparation: The cell culture was transferred to a 50 mL conical tube, spun down to remove medium, and resuspended at 1-2×10^6 cells/mL in complete medium containing 10% DMSO. The culture was then stored for 24 hours at −80 degree C., (with the initial rate of freezing is −1 degree C. per minute in a freezing container), then transferred and stored in liquid nitrogen.
(§1) Routine subculture: Sub-confluent cultures (70-80%) were split every 4 days, seeding out at 1-2×10^6 cells/75 cm^2.
Day 0: Assay ready plates were prepared by dispensing 50 nL of compound or DMSO in the appropriate wells of 384-well white CulturPlates using Echo550. Using the Multiflo, A549 cells were plated at 50 μL/well in F12K complete media+10% HI-FBS+1% pen/strep at cell density determined [1,250 cells/mL (62.5 cells/well)] from growth curve.
Treated cells were incubated at 37° C., 5% CO2, relative humidity >90% for 7 days. CellTiter-Glo (CTG) ATP detection reagent was prepared according to manufacturer's specifications. Cell assay plates were removed from the incubator and brought to room temperature (RT). Using the MultiDrop liquid handler, 30 μL of CTG were added per well. Plates were placed on the multidrop dispenser shake for 5 seconds at room temperature (RT). Plates were incubated for 30 minutes in the dark at RT before measuring luminescence using the Envison2104.
Data analysis: Using the DMSO control wells as the 0% inhibition (high signal) control and the 10 μM Doxorubicin control wells as the 100% inhibition (low signal) control, percent inhibition EC50s (inflection point) and IC50 s were calculated for the compound dose responses.
Regarding `O=C1Cc2ccc(C#Cc3cc(C(=O)Nc4cc(F)c(=O)n(CC(F)F)c4)sc3Cl)cc2N1` [Compound 140c], the IC50 is more than 10000 nM.
Same read-out and setting: the figure for `CNC(=O)c1cc(C#Cc2cc(C(=O)Nc3cc(F)c(=O)n(CC(F)F)c3)sc2Cl)nn1C` [Compound 154c] is more than 10000 nM; for `O=C(Nc1cc(F)c(=O)n(CC(F)F)c1)c1cc(Cl)c(Cl)s1` [Compound 47c] it is 1410 nM; for `Cc1sc(C(=O)Nc2cc(F)c(=O)n(CC(F)F)c2)cc1C#N` [Compound 81d] it is 2370 nM.
Same read-out and setting: the figure for `Cc1ncc(C#Cc2cc(C(=O)Nc3cc(F)c(=O)n(CC(F)F)c3)sc2Cl)s1` [Compound 39c] is 1370 nM.
Consider `O=C1CCC(C#Cc2cc(C(=O)Nc3cc(F)c(=O)n(CC(F)F)c3)sc2Cl)CN1` (stereo not drawn) [Compound 153c], for which the IC50 was more than 10000 nM.
In the case of `CN1CC(C#Cc2cc(C(=O)Nc3cc(F)c(=O)n(CC(F)F)c3)sc2Cl)CCC1=O` (stereo not drawn) [Compound 118d], the IC50 was determined as 7180 nM.
With `N#Cc1sc(C(=O)Nc2cc(F)c(=O)n(CC(F)F)c2)cc1C#C[C@H]1C[C@@H](O)C1` [Compound 105d], the IC50 amounted to 4300 nM.
As to `CNC(=O)c1cc(C#Cc2cc(C(=O)Nc3cc(F)c(=O)n(CC(F)F)c3)sc2Cl)on1` [Compound 55d], the IC50 is more than 10000 nM.
Same read-out and setting: the result for `O=C(Nc1cc(F)c(=O)n(CC(F)F)c1)c1cc(C#CC2CCN(CC(F)(F)F)C2)c(Cl)s1` (stereo not drawn) [Compound 110d] reads more than 10000 nM; that for `O=C(Nc1cc(F)c(=O)n(CC(F)F)c1)c1cc(C#CCn2ccnc2)c(Cl)s1` [Compound 116d], 8920 nM.
On the same count and under the same terms, the figure for `O=C(Nc1cc(F)c(=O)n(CC(F)F)c1)c1cc(C#Cc2ccc3nncn3c2)c(Cl)s1` [Compound 91d] is more than 10000 nM.

For a further assay, the target named is T1, FL-SMARCA2 (full-length human SMARCA2 isoform 1) (Homo sapiens, UniProt P51531).
T1 construct: FLAG tag (YKDDDDK) (C); made in house; host or cells: Sf21 insect cells (baculovirus, pFastBacI)
T1 sequence (P51531 with tags, fused parts or gaps): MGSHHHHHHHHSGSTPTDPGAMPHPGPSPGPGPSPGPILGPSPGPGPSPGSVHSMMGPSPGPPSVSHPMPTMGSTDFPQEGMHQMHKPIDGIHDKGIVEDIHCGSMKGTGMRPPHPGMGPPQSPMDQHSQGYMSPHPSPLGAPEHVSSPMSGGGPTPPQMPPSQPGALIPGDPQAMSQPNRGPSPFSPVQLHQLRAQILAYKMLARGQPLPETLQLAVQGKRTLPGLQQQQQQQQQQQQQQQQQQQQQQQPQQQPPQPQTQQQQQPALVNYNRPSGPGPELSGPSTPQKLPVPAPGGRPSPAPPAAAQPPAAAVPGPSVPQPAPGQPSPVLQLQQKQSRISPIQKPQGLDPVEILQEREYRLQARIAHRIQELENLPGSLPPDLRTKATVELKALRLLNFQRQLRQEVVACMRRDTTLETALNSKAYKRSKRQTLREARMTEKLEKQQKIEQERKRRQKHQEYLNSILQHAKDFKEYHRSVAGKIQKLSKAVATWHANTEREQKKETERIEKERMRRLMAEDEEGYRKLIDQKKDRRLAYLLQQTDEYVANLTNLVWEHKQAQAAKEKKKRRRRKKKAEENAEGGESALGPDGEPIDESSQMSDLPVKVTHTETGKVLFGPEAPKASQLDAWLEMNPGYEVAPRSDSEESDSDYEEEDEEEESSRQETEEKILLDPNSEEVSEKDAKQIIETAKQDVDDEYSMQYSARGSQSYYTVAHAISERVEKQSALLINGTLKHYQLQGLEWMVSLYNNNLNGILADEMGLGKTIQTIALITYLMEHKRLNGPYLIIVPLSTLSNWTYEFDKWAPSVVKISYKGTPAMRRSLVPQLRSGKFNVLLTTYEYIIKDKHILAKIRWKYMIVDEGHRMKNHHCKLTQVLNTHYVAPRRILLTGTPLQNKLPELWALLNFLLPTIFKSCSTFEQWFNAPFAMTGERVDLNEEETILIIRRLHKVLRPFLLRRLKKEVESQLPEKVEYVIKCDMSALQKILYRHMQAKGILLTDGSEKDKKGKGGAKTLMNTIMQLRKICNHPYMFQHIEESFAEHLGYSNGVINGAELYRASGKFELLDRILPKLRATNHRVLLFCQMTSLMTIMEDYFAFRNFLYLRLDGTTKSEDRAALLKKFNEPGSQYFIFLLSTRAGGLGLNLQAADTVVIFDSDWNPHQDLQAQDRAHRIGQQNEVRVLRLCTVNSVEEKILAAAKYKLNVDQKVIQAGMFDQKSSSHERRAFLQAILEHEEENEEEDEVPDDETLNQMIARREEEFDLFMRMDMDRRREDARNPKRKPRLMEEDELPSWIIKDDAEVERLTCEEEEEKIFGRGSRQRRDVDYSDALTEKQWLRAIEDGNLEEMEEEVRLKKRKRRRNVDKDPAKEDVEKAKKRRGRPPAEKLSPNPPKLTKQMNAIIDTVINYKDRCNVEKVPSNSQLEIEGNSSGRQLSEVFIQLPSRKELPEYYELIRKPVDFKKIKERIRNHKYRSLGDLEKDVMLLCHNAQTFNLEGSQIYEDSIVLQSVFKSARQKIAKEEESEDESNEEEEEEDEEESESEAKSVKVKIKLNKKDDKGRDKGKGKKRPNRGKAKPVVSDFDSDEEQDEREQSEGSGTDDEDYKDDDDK
In words: SMARCA2 ATPase activity assay (ADP-Glo, chicken mononucleosome substrate). In kind it is biochemical. The settings on record: Table 3c.1; ATPase assay, enzyme 5 nM, ATP 250 uM, chicken mononucleosome 10 nM, 30 min preincubation.
On to `O=C1Cc2ccc(C#Cc3cc(C(=O)Nc4cc(F)c(=O)n(CC(F)F)c4)sc3Cl)cc2N1` [Compound 140c], for which the IC50 is 34 nM.
For the compound `CNC(=O)c1cc(C#Cc2cc(C(=O)Nc3cc(F)c(=O)n(CC(F)F)c3)sc2Cl)nn1C` [Compound 154c], the IC50 was 71.1 nM.
As for `O=C(Nc1cc(F)c(=O)n(CC(F)F)c1)c1cc(Cl)c(Cl)s1` [Compound 47c], the IC50 amounted to 65 nM.
The same measure, in the same setting: the result for `Cc1ncc(C#Cc2cc(C(=O)Nc3cc(F)c(=O)n(CC(F)F)c3)sc2Cl)s1` [Compound 39c] reads 78 nM.
The same measure, in the same setting: the result for `O=C1CCC(C#Cc2cc(C(=O)Nc3cc(F)c(=O)n(CC(F)F)c3)sc2Cl)CN1` (stereo not drawn) [Compound 153c] reads 211 nM.

The same assay, now with this note: Table 3d.1; ATPase assay, enzyme 5 nM, ATP 250 uM, chicken mononucleosome 10 nM, 30 min preincubation; read-out: FL-SMARCA2 IC>50.
As for `Cc1sc(C(=O)Nc2cc(F)c(=O)n(CC(F)F)c2)cc1C#N` [Compound 81d], the IC50 came out at 67 nM.
On the same count and under the same terms, the result for `CN1CC(C#Cc2cc(C(=O)Nc3cc(F)c(=O)n(CC(F)F)c3)sc2Cl)CCC1=O` (stereo not drawn) [Compound 118d] reads 245 nM; that for `N#Cc1sc(C(=O)Nc2cc(F)c(=O)n(CC(F)F)c2)cc1C#C[C@H]1C[C@@H](O)C1` [Compound 105d], 31.4 nM; that for `CNC(=O)c1cc(C#Cc2cc(C(=O)Nc3cc(F)c(=O)n(CC(F)F)c3)sc2Cl)on1` [Compound 55d], 92.6 nM.
The same measure, in the same setting: the result for `O=C(Nc1cc(F)c(=O)n(CC(F)F)c1)c1cc(C#CC2CCN(CC(F)(F)F)C2)c(Cl)s1` (stereo not drawn) [Compound 110d] reads 1470 nM.
Same read-out and setting: the figure for `O=C(Nc1cc(F)c(=O)n(CC(F)F)c1)c1cc(C#CCn2ccnc2)c(Cl)s1` [Compound 116d] is 252 nM; for `O=C(Nc1cc(F)c(=O)n(CC(F)F)c1)c1cc(C#Cc2ccc3nncn3c2)c(Cl)s1` [Compound 91d] it is 22.9 nM.

Another assay has as its target FL-SMARCA4 (Homo sapiens, UniProt P51532). Description: SMARCA4 ATPase activity assay (ADP-Glo, chicken mononucleosome substrate). The settings on record: FL-SMARCA4 IC50.
Compound `Cc1sc(C(=O)Nc2cc(F)c(=O)n(CC(F)F)c2)cc1C#N` [Compound 81d] returned an IC50 of 241 nM.
As to `CN1CC(C#Cc2cc(C(=O)Nc3cc(F)c(=O)n(CC(F)F)c3)sc2Cl)CCC1=O` (stereo not drawn) [Compound 118d], the IC50 amounted to 544 nM.
`N#Cc1sc(C(=O)Nc2cc(F)c(=O)n(CC(F)F)c2)cc1C#C[C@H]1C[C@@H](O)C1` [Compound 105d] returned an IC50 of 90.6 nM.
`CNC(=O)c1cc(C#Cc2cc(C(=O)Nc3cc(F)c(=O)n(CC(F)F)c3)sc2Cl)on1` [Compound 55d]: the IC50 came to 246 nM.
Compound `O=C(Nc1cc(F)c(=O)n(CC(F)F)c1)c1cc(C#CC2CCN(CC(F)(F)F)C2)c(Cl)s1` (stereo not drawn) [Compound 110d] returned an IC50 of 4610 nM.
For the compound `O=C(Nc1cc(F)c(=O)n(CC(F)F)c1)c1cc(C#CCn2ccnc2)c(Cl)s1` [Compound 116d], the IC50 is 673 nM.
Same read-out and setting: the figure for `O=C(Nc1cc(F)c(=O)n(CC(F)F)c1)c1cc(C#Cc2ccc3nncn3c2)c(Cl)s1` [Compound 91d] is 69.8 nM.

The assay is the same for the next values; noted with them: FL-SMARCA4 IC>50, Table 3c.2; ATPase assay, enzyme 5 nM, ATP 250 uM, chicken mononucleosome 10 nM, 30 min preincubation.
`O=C1Cc2ccc(C#Cc3cc(C(=O)Nc4cc(F)c(=O)n(CC(F)F)c4)sc3Cl)cc2N1` [Compound 140c] gave an IC50 of 63.3 nM.
Compound `CNC(=O)c1cc(C#Cc2cc(C(=O)Nc3cc(F)c(=O)n(CC(F)F)c3)sc2Cl)nn1C` [Compound 154c] came in with an IC50 of 147 nM.
The same measure, in the same setting: the result for `O=C(Nc1cc(F)c(=O)n(CC(F)F)c1)c1cc(Cl)c(Cl)s1` [Compound 47c] reads 177 nM; that for `Cc1ncc(C#Cc2cc(C(=O)Nc3cc(F)c(=O)n(CC(F)F)c3)sc2Cl)s1` [Compound 39c], 143 nM; that for `O=C1CCC(C#Cc2cc(C(=O)Nc3cc(F)c(=O)n(CC(F)F)c3)sc2Cl)CN1` (stereo not drawn) [Compound 153c], 439 nM.

The next assay deals with H358 cells. In words: High-throughput proliferation (HTP) assay for H358 cells (CellTiter-Glo, 7 days). In kind it is cell-based. Conditions: Homo sapiens, NCI-H358, 168 h, read-out: H358 SMARCA2 IC50. As for the experimental part:
Thawing vials: H358 cells (ATCC #CRL-5807™) were thawed from a cryovial containing approximately 1.6×10^6 cells frozen in 70% RPMI 1640 medium, 20% HI-FBS and 10% DMSO. Cells were thawed by submerging the bottom half of the vial in a 37° C. water bath and gently flicked until almost thawed. The cells were removed and transferred into a 15 mL conical tube containing 9 mL RPMI 1640 medium+10% HI-FBS and then centrifuged 200×g for 4 min before drawing off the media without disturbing the cell pellet to remove the DMSO. The cells were resuspended again in 15 mL of RPMI 1640 fresh complete media+10% HI-FBS and grown up in a T75 flask at 37° C. with 5% CO2 Incubator. Viability was measured to obtain baseline.
Preparing frozen stock vials: Cell density was counted in a stock flask. The culture was transferred to a 50 mL conical tube and spun down to remove medium, and then resuspend at 1-2×10^6 cells/mL in complete medium containing 10% DMSO and transferred to a 1 mL per vial.
as §1
Day 0: Assay ready plates were prepared by dispensing 50 nL of compound stock or DMSO in the appropriate wells of 384-well white CulturPlates using Echo550. Using the Multiflo, H358 cells at 50 μL/well were plated in RPMI 1640 complete media+10% HI-FBS+1% pen/strep at cell density determined [20,000 cells/mL (1,000 cells/well)] from growth curve. Treated cells were inclubated at 37° C., 5% CO2, relative humidity >90% for 7 days. CellTiter-Glo (CTG) ATP detection reagent was prepared according to manufacturer's specifications. Cell assay plates were removed from incubator and bring to room temperature (RT).
Using the MultiDrop liquid handler, 30 μL of CTG were added per well. Plates were placed on the multidrop dispenser shake for 5 seconds at RT. Plates were incubated for 30 minutes in the dark at RT before measuring luminescence using the Envison2104.
Data analysis: Using the DMSO control wells as the 0% inhibition (high signal) control and the 10 uM Doxorubicin control wells as the 100% inhibition (low signal) control, percent inhibition EC50s (inflection point) and IC50s were calculated for the compound dose responses.
(In general: In ATP-based viability assays light output follows the ATP content of the culture.)
For the compound `O=C1Cc2ccc(C#Cc3cc(C(=O)Nc4cc(F)c(=O)n(CC(F)F)c4)sc3Cl)cc2N1` [Compound 140c], the IC50 was more than 10000 nM.
The same measure, in the same setting: the result for `CNC(=O)c1cc(C#Cc2cc(C(=O)Nc3cc(F)c(=O)n(CC(F)F)c3)sc2Cl)nn1C` [Compound 154c] reads more than 10000 nM; that for `O=C(Nc1cc(F)c(=O)n(CC(F)F)c1)c1cc(Cl)c(Cl)s1` [Compound 47c], more than 10000 nM.
Still for that read-out and setting: the result for `Cc1sc(C(=O)Nc2cc(F)c(=O)n(CC(F)F)c2)cc1C#N` [Compound 81d] reads more than 10000 nM.
Same read-out and setting: the figure for `Cc1ncc(C#Cc2cc(C(=O)Nc3cc(F)c(=O)n(CC(F)F)c3)sc2Cl)s1` [Compound 39c] is more than 10000 nM; for `O=C1CCC(C#Cc2cc(C(=O)Nc3cc(F)c(=O)n(CC(F)F)c3)sc2Cl)CN1` (stereo not drawn) [Compound 153c] it is 6950 nM; for `CN1CC(C#Cc2cc(C(=O)Nc3cc(F)c(=O)n(CC(F)F)c3)sc2Cl)CCC1=O` (stereo not drawn) [Compound 118d] it is more than 10000 nM.
Turning to `N#Cc1sc(C(=O)Nc2cc(F)c(=O)n(CC(F)F)c2)cc1C#C[C@H]1C[C@@H](O)C1` [Compound 105d], the IC50 is more than 10000 nM.
The same measure, in the same setting: the result for `CNC(=O)c1cc(C#Cc2cc(C(=O)Nc3cc(F)c(=O)n(CC(F)F)c3)sc2Cl)on1` [Compound 55d] reads more than 10000 nM; that for `O=C(Nc1cc(F)c(=O)n(CC(F)F)c1)c1cc(C#CC2CCN(CC(F)(F)F)C2)c(Cl)s1` (stereo not drawn) [Compound 110d], more than 10000 nM.
Regarding `O=C(Nc1cc(F)c(=O)n(CC(F)F)c1)c1cc(C#CCn2ccnc2)c(Cl)s1` [Compound 116d], the IC50 is more than 10000 nM.
On the same count and under the same terms, the result for `O=C(Nc1cc(F)c(=O)n(CC(F)F)c1)c1cc(C#Cc2ccc3nncn3c2)c(Cl)s1` [Compound 91d] reads more than 10000 nM.
